ChEMBL document CHEMBL1134530, “Synthesis and biological activity of 7-oxo substituted analogues of 5-deaza-5,6,7,8-tetrahydrofolic acid (5-DATHF) and 5,10-dideaza-5,6,7,8-tetrahydrofolic acid (DDATHF)” (J Med Chem, 2001)
In brackets after ≈: the same amount, converted by molar mass.

What follows are compounds tested on CCRF-CEM (assay: Compound was tested for cytotoxic activity in CCRF-CEM Human Leukemia cells by in vitro cytotoxicity assay).
Assay type: functional, cell-based

Compound | IC50
CN(CC1Cc2c(O)nc(N)nc2NC1=O)c1ccc(C(=O)NC(CCC(=O)O)C(=O)O)cc1 (stereo not given) | > 20000 ng/mL
Nc1nc(O)c2c(n1)NC(=O)C(CNc1ccc(C(=O)NC(CCC(=O)O)C(=O)O)cc1)C2 (stereo not given) | > 20000 ng/mL
Nc1nc(O)c2c(n1)NCC(CCc1ccc(C(=O)NC(CCC(=O)O)C(=O)O)cc1)C2 (stereo not given) | 7 ng/mL (≈ 0.0158 µM)
CN(Cc1cnc2nc(N)nc(N)c2n1)c1ccc(C(=O)N[C@@H](CCC(=O)O)C(=O)O)cc1 [METHOTREXATE] | 4 ng/mL (≈ 0.0088 µM)
Nc1nc(O)c2c(n1)NC(=O)C(CCc1ccc(C(=O)NC(CCC(=O)O)C(=O)O)cc1)C2 (stereo not given) | > 20000 ng/mL
